Results as given in ChEMBL document CHEMBL5465560, “Selectivity Literature for EUbOPEN Chemogenomic Library” (2024).
Blank lines part the entries; values can stand above or below the compound they belong to.

What was measured:
[1] = biological target: Tyrosine-protein kinase Fyn (Homo sapiens) (UniProt P06241); test: Selectivity interaction (KinomeScan (DiscoverX)) EUB0000618a FYN; settings: at 10 µM
[2] = biological target: T1, Dual serine/threonine and tyrosine protein kinase (Homo sapiens) (UniProt Q6XUX3); test: Selectivity interaction (KinomeScan (DiscoverX)) EUB0000607a DSTYK; settings: at 10 µM
T1 sequence (whole entry): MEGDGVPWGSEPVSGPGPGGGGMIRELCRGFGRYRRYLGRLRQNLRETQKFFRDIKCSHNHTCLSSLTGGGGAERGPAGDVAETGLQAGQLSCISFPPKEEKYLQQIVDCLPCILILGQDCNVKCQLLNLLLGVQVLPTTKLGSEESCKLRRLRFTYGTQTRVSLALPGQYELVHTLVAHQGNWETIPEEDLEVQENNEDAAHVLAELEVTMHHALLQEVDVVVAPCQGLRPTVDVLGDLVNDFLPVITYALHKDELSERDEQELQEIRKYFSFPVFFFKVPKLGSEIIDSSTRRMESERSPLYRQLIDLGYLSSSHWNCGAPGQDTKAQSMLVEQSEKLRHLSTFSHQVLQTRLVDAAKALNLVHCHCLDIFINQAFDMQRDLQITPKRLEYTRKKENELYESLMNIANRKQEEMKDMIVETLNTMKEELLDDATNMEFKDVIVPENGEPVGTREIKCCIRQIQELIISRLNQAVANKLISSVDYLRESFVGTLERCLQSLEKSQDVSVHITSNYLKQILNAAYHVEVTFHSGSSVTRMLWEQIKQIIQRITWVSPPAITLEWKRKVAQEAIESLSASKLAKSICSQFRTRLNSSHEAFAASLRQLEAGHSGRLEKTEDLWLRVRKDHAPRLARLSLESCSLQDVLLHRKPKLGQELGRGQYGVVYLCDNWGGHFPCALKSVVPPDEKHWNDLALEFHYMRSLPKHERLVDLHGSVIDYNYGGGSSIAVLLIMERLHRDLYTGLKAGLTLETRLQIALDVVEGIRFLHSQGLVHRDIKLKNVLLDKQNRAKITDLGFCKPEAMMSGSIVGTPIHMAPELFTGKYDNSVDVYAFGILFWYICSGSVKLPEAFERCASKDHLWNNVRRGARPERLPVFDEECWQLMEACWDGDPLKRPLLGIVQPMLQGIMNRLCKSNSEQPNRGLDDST

[3] = biological target: T2, Ephrin type-B receptor 4 (Homo sapiens) (UniProt P54760); test: Selectivity interaction (ProQinase) EUB0000171b EPHB4
T2 sequence (whole entry): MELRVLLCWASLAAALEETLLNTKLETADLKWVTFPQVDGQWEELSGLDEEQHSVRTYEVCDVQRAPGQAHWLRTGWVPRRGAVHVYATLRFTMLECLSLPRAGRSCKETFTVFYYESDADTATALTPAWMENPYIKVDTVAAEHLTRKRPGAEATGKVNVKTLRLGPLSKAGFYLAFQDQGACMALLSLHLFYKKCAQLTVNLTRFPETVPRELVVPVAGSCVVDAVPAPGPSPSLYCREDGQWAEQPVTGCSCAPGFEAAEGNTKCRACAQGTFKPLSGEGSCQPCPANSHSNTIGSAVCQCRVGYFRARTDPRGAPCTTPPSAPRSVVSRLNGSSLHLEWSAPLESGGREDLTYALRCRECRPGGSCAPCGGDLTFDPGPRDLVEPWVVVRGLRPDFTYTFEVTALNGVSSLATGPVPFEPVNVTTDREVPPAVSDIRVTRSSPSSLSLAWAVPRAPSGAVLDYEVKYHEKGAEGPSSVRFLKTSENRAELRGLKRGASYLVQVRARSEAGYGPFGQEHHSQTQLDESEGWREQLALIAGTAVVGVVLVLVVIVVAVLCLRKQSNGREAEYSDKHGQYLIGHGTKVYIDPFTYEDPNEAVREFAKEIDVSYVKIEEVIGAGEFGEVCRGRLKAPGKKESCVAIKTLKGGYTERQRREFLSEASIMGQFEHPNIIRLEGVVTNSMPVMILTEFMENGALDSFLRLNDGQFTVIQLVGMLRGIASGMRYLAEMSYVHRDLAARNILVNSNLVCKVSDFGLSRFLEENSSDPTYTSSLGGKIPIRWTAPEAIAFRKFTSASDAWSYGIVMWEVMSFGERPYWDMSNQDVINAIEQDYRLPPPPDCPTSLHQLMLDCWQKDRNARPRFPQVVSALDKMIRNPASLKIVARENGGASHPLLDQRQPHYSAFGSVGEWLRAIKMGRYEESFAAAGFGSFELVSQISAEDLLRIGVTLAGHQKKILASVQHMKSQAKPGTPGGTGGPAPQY

[4] = biological target: Mitogen-activated protein kinase kinase kinase kinase 4 (Homo sapiens, UniProt O95819); test: Selectivity interaction (KinomeScan (DiscoverX)) EUB0001049a MAP4K4; settings: at 1 µM
[5] = biological target: T3, Mitogen-activated protein kinase kinase kinase 12 (Homo sapiens) (UniProt Q12852); test: Selectivity interaction (KinomeScan (DiscoverX)) EUB0001049a MAP3K12; settings: at 1 µM
T3 sequence (whole entry): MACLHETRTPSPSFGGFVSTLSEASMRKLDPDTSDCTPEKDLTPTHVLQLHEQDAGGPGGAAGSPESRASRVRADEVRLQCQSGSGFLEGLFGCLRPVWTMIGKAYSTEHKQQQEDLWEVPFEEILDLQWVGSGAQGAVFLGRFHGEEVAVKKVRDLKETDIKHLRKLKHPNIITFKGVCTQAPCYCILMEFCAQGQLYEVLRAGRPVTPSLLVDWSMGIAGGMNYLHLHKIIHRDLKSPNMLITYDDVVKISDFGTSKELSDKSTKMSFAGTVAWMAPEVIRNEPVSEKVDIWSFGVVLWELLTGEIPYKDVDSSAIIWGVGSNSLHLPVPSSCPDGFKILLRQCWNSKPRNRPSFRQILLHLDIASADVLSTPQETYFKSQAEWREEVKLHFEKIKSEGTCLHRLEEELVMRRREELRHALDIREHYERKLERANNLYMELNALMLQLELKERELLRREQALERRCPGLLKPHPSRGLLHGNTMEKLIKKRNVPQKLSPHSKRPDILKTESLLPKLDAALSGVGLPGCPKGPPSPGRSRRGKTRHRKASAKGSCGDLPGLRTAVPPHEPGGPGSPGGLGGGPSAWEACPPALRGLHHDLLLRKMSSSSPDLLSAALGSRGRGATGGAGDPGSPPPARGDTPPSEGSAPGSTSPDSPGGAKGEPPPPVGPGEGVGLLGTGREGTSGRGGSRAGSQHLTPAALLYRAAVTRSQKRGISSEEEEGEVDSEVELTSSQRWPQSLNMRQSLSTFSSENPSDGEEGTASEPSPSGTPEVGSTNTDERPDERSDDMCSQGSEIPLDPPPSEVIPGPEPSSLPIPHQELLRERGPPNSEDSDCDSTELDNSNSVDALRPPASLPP

[6] = biological target: MAP/microtubule affinity-regulating kinase 3 (Homo sapiens) (UniProt P27448); test: Selectivity interaction (Kinase panel (Carna Biosciences)) EUB0001542aTs MARK3; settings: at 1 µM
Chain of MAP/microtubule affinity-regulating kinase 3 (Homo sapiens) (P27448 whole entry, looked up): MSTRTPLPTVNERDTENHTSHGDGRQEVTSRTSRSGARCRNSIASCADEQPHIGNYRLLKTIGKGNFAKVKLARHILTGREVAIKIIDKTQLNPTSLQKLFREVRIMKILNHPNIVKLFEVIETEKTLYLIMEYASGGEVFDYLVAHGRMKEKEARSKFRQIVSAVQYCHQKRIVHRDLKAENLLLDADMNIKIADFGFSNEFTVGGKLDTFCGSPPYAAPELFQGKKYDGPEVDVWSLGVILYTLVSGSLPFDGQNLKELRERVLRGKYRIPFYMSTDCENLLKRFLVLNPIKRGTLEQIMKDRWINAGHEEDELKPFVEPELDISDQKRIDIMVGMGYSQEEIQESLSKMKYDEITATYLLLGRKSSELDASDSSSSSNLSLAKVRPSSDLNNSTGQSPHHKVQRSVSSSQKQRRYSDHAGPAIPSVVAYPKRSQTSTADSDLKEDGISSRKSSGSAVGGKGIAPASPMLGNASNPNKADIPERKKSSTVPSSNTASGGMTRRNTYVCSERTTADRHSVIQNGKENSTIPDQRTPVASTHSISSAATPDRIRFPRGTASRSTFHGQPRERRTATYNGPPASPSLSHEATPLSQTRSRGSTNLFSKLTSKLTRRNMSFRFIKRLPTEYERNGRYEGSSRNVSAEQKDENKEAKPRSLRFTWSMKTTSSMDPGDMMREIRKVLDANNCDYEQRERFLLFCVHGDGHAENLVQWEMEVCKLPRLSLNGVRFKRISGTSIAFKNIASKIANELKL

Chain of Mitogen-activated protein kinase kinase kinase kinase 4 (O95819 2-1239 limits assumed): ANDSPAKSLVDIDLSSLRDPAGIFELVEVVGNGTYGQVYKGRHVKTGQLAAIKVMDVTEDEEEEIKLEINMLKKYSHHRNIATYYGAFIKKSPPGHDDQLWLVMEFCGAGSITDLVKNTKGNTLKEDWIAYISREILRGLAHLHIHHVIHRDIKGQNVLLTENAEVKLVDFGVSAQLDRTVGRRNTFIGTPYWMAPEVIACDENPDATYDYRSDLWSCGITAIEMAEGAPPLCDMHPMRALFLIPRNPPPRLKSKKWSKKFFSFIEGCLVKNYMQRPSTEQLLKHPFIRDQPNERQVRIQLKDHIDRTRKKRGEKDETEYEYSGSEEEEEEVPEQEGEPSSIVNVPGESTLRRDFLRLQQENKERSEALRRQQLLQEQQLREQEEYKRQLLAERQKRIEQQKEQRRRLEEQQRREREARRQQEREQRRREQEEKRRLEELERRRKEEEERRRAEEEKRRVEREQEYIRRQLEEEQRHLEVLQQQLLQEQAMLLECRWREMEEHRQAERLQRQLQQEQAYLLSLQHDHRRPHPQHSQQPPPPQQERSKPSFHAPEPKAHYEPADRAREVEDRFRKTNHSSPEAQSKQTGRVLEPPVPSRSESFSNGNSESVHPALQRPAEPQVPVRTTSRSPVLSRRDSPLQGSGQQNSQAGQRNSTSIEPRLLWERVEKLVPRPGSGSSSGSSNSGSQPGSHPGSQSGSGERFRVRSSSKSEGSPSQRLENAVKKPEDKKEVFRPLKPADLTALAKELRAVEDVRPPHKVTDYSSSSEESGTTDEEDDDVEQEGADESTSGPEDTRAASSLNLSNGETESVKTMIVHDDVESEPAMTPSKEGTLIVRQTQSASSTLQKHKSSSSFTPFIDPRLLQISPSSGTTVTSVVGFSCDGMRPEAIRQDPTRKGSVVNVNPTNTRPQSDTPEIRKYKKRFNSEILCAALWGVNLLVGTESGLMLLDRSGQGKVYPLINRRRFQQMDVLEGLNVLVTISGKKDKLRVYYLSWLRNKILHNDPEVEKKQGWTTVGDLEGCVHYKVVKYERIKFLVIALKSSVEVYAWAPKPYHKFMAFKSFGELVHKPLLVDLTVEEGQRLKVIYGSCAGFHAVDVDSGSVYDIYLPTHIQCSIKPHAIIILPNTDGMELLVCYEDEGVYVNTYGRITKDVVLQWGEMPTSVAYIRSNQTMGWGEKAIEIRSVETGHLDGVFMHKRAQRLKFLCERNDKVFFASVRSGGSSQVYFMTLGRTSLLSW
Chain of Tyrosine-protein kinase Fyn (Homo sapiens) (P06241 2-537 limits assumed): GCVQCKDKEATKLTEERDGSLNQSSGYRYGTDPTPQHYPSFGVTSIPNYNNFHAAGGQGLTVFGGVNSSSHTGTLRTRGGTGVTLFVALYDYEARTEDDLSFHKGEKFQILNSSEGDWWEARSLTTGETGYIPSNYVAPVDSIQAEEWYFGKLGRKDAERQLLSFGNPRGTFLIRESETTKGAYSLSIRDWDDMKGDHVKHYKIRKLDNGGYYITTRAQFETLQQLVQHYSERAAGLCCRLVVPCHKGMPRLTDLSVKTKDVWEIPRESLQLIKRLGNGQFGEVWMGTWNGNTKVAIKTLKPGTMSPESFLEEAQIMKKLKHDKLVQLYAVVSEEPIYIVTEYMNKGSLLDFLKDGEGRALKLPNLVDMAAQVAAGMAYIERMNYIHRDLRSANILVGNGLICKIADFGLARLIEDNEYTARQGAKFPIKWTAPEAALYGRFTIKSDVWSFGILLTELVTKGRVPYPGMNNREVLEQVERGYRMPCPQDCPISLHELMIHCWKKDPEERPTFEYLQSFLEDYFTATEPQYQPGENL

Structure (SMILES): O[C@H]1CC[C@H](Nc2ncc3nc(Nc4c(F)cc(F)cc4F)n([C@H]4CCOC4)c3n2)CC1
- % of control [1]: 100%

Structure (SMILES): CNC(=O)Nc1ccc(-c2nc(N3CC4CCC(C3)O4)c3cnn(C4CCC5(CC4)OCCO5)c3n2)cc1
- % of control [2]: 100%

- % of control ([3]; at 1 µM): 110%
- % of control ([3]; at 5 µM): 111%
Structure (SMILES): C=CC(=O)Nc1cccc(C(=O)Nc2ccc(Nc3cc(-c4[nH]c(SC)nc4C)ccn3)cc2)c1

Structure (SMILES): COc1cc(Nc2nc(C)cc(-c3cnn4nc(OC)ccc34)n2)cc(C(F)(F)F)c1
- % of control [4]: 99%
- % of control [5]: 92%

- % of inhibition [6]: 50%
Structure (SMILES): Cn1cc(Nc2nccc(N3CC4CCC(C3)N4C(=O)[C@@H]3CC3(F)F)n2)cn1
